Test results taken from the supplement of paper PMC10307832.

Tests used:
Assay in all cases: relative viability (nuclei count vs DMSO), 5 days (fraction); higher = more cells survive
GSK126 + Vorinostat = compound: CC[C@H](C)N1C=C(C2=C(C=C(C=C21)C3=CN=C(C=C3)N4CCNCC4)C(=O)NCC5=C(C=C(NC5=O)C)C)C [GSK126] + O=C(CCCCCCC(=O)Nc1ccccc1)NO [Vorinostat] (partner 1 µM)
Outline: (§1)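 Lung cancer cell lines in 1536-well plates got either a single drug or a fixed anchor-drug dose together with five library-drug doses (not always all listed) in √10 steps, by pin tool, on the day after seeding. Nuclei were counted after 5 days, and relative viability is the treated-to-vehicle ratio of nuclei counts. Values are medians of duplicate plates.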

GSK126 + Decitabine = compound: CC[C@H](C)N1C=C(C2=C(C=C(C=C21)C3=CN=C(C=C3)N4CCNCC4)C(=O)NCC5=C(C=C(NC5=O)C)C)C [GSK126] + Nc1ncn([C@H]2C[C@H](O)[C@@H](CO)O2)c(=O)n1 [Decitabine] (partner 2 µM)
Outline: as §1

MLN4924 + Bortezomib = compound: NS(=O)(=O)OC[C@@H]1C[C@@H](n2ccc3c(N[C@H]4CCc5ccccc54)ncnc32)C[C@@H]1O [MLN4924] + CC(C)C[C@H](NC(=O)[C@H](Cc1ccccc1)NC(=O)c1cnccn1)B(O)O [Bortezomib] (partner 0.002 µM)
Outline: as §1

Carboplatin + Luminespib = compound: C1CC(C1)(C(=O)O)C(=O)O.[NH2-].[NH2-].[Pt+2] [Carboplatin] + CCNC(=O)c1noc(-c2cc(C(C)C)c(O)cc2O)c1-c1ccc(CN2CCOCC2)cc1 [Luminespib] (partner 0.01 µM)
Outline: as §1

| Cell Line | relative viability (GSK126 + Vorinostat; first compound 0.08 µM) | relative viability (GSK126 + Vorinostat; first compound 0.253 µM) | relative viability (GSK126 + Vorinostat; first compound 0.8 µM) | relative viability (GSK126 + Vorinostat; first compound 2.53 µM) | relative viability (GSK126 + Vorinostat; first compound 8 µM) | relative viability (GSK126 + Decitabine; first compound 0.08 µM) | relative viability (GSK126 + Decitabine; first compound 0.253 µM) | relative viability (GSK126 + Decitabine; first compound 0.8 µM) | relative viability (GSK126 + Decitabine; first compound 2.53 µM) | relative viability (GSK126 + Decitabine; first compound 8 µM) | relative viability (MLN4924 + Bortezomib; first compound 0.04 µM) | relative viability (MLN4924 + Bortezomib; first compound 0.1265 µM) | relative viability (MLN4924 + Bortezomib; first compound 0.4 µM) | relative viability (MLN4924 + Bortezomib; first compound 1.265 µM) | relative viability (MLN4924 + Bortezomib; first compound 4 µM) | relative viability (Carboplatin + Luminespib; first compound 0.08 µM) | relative viability (Carboplatin + Luminespib; first compound 0.253 µM) | relative viability (Carboplatin + Luminespib; first compound 0.8 µM) | relative viability (Carboplatin + Luminespib; first compound 2.53 µM) | relative viability (Carboplatin + Luminespib; first compound 8 µM) |
| --- | --- | --- | --- | --- | --- | --- | --- | --- | --- | --- | --- | --- | --- | --- | --- | --- | --- | --- | --- | --- |
| LCLC-97TM1 | 0.771 | 0.8 | 0.717 | 0.812 | 0.691 | 0.237 | 0.257 | 0.218 | 0.24 | 0.253 | 0.403 | 0.46 | 0.107 | 0.046 | 0.0727 | 0.726 | 0.667 | 0.65 | 0.732 | 0.722 |
| LCLC-103H | 0.888 | 0.906 | 0.77 | 0.786 | 0.761 | 0.795 | 0.855 | 0.797 | 0.737 | 0.759 | 1.04 | 1.16 | 0.955 | 0.346 | 0.301 | 0.918 | 1.09 | 0.859 | 0.908 | 0.905 |
| LOU-NH91 | 0.909 | 0.878 | 0.781 | 0.957 | 0.905 | 0.831 | 0.813 | 0.838 | 0.793 | 0.823 | 0.418 | 0.484 | 0.38 | 0.393 | 0.329 | 0.393 | 0.337 | 0.329 | 0.306 | 0.34 |
| LU99A | 0.506 | 0.484 | 0.443 | 0.404 | 0.561 | 0.986 | 0.915 | 1.03 | 0.916 | 0.999 | 0.873 | 0.316 | 0.407 | 0.159 | 0.138 | 0.29 | 0.319 | 0.247 | 0.188 | 0.211 |
| LXF-289 | 0.8 | 0.832 | 0.718 | 0.787 | 0.707 | 0.38 | 0.36 | 0.395 | 0.388 | 0.374 | 0.928 | 0.707 | 0.516 | 0.269 | 0.162 | 0.79 | 0.787 | 0.601 | 0.677 | 0.568 |
| NCI-H23 | 0.936 | 0.627 | 0.639 | 0.632 | 0.527 | 0.314 | 0.337 | 0.3 | 0.268 | 0.334 | 0.94 | 0.617 | 0.376 | 0.165 | 0.144 | 0.194 | 0.237 | 0.208 | 0.173 | 0.233 |
| NCI-H322M | 0.838 | 0.884 | 0.866 | 0.939 | 0.939 | 0.656 | 0.676 | 0.758 | 0.733 | 0.754 | 1.24 | 1.36 | 1.2 | 0.302 | 0.463 | 1.09 | 0.749 | 0.752 | 0.633 | 0.61 |
| NCI-H441 | 1.04 | 0.59 | 0.714 | 0.673 | 0.791 | 0.248 | 0.236 | 0.143 | 0.214 | 0.234 | 0.876 | 0.29 | 0.236 | 0.145 | 0.191 | 0.387 | 0.28 | 0.266 | 0.295 | 0.234 |
| NCI-H460 | 0.89 | 0.718 | 0.75 | 0.699 | 0.656 | 0.605 | 0.495 | 0.468 | 0.37 | 0.446 | 0.998 | 1.1 | 1.04 | 0.203 | 0.0203 | 0.0398 | 0.0303 | 0.0396 | 0.0341 | 0.0233 |
| NCI-H520 | 0.761 | 0.739 | 0.656 | 0.745 | 0.87 | 0.611 | 0.505 | 0.487 | 0.494 | 0.557 | 0.424 | 0.272 | 0.341 | 0.131 | 0.141 | 0.256 | 0.209 | 0.183 | 0.21 | 0.211 |
| NCI-H596 | 0.613 | 0.55 | 0.746 | 0.577 | 0.502 | 1.09 | 0.882 | 1.04 | 1.05 | 1.06 | 1.08 | 1.02 | 0.709 | 0.885 | 0.974 | 1.02 | 1 | 0.4 | 0.342 | 0.746 |
| NCI-H647 | 0.724 | 0.61 | 0.614 | 0.592 | 0.687 | 0.445 | 0.356 | 0.484 | 0.383 | 0.437 | 0.583 | 0.425 | 0.149 | 0.0614 | 0.0695 | 0.169 | 0.239 | 0.154 | 0.185 | 0.13 |
| NCI-H650 | 0.482 | 0.412 | 0.411 | 0.403 | 0.487 | 0.33 | 0.293 | 0.311 | 0.299 | 0.322 | 0.439 | 0.456 | 0.233 | 0.179 | 0.202 | 0.757 | 0.904 | 0.655 | 0.548 | 0.327 |
| NCI-H661 | 0.779 | 0.746 | 0.734 | 0.716 | 0.69 | 0.626 | 0.506 | 0.498 | 0.535 | 0.563 | 0.872 | 0.904 | 0.637 | 0.29 | 0.254 | 0.892 | 0.901 | 0.854 | 0.874 | 0.744 |
| NCI-H727 | 1.45 | 1.16 | 1.28 | 1.1 | 1.19 | 1.01 | 1.03 | 0.804 | 0.89 | 0.864 | 0.624 | 0.512 | 0.313 | 0.267 | 0.225 | 0.377 | 0.3 | 0.432 | 0.24 | 0.312 |
